Data set [1] is described as follows: Single oral dose pharmacokinetics of BKIs in mice (plasma). As to conditions: mouse plasma. Format: in vivo. As to the method: Mouse oral PK studies were performed as previously described. Briefly, three female BALB/c mice (10 -12 weeks old) were used in each group. With the exception of 1556, each group of mice received an individual BKI at a dose of 10 mg/kg body weight by oral gavage in 200 μL 70% Tween 80/30% ethanol diluted in saline. The only difference for mice administered 1556 was that the group received a dose of 25 mg/kg. Blood samples were taken by tail bleeding into heparinized tubes at designated time points and centrifuged to obtain plasma. The samples were frozen at -20°C. The plasma samples were prepared by adding acetonitrile + 0.1% formic acid with an internal standard. Calibration curves were generated by spiking standards of each BKI into mouse serum and preparing the standards along with test samples. The PK calculations of Cmax and AUC were performed using Phoenix WinNonlin software (Certara, Princeton, NJ).

Data set [2] is described as follows: Plasma protein binding. Format: in vitro ADME. The text has this: (§1) Information regarding the C. parvum oocysts, generation of BKIs, CpCDPK1 enzyme inhibition, C. parvum growth inhibition by BKIs, plasma protein binding, and neonatal mouse model of C. parvum infection has been described in detail elsewhere. Information on BKI solubility and permeability, Gastroplus modeling, the interferon (IFN) γ knockout (KO) mouse model, and measurement of BKI levels in the GI tract of mice is described in the Supplementary Material. All animal experiments were approved by the Institutional Animal Care and Use Committees at the participating universities (University of Washington, University of Georgia, and University of Arizona).

The test system of data set [3] is Cryptosporidium parvum. The experiment in a line: C. parvum growth inhibition by BKIs in vitro. As to conditions: read-out: BKI EC50 for Inhibition of C. parvum Proliferation. Format: cell-based.
Description: as §1

For data set [4], the system named is Cryptosporidium parvum. The experiment in a line: Neonatal mouse model of C. parvum infection. Format: in vivo. The arrangement: concentration or dose not given beside the values.
Description: as §1

The nature of data set [5]: BKI aqueous solubility at pH 2 and 6.5. The class given is physicochemical. Conditions: second of two values; measured at pH 2 and 6.5. The method, then:
Briefly, 1 μL of 20 mM dimethyl sulfoxide (DMSO) stock was added to 199 μL of buffer. Samples were vortexed and allowed to incubate at 25 °C overnight. The next day, each sample was centrifuged at 13800 rpm for 40 minutes at 25 °C. The supernatant was collected and 100 μL of the supernatant was added to 100 μL acetonitrile. Solutions were analyzed by HPLC/UV and were quantified based on a five-point calibration curve for each analyte.

Data set [6] has as its system Cryptosporidium parvum. The experiment in a line: IFN-γ KO adult mouse model of C. parvum infection (Nluc oocyst shedding). Format: in vivo. As to conditions: IFN-γ KO mice, 6 mg/kg once daily oral for 5 days. The text has this: The ability to predict in vivo efficacy with BKI ascending colon concentrations was further evaluated in an adult model of C. parvum infection. Female IFN-γ KO mice were infected with transgenic C. parvum strain UGA1 expressing nanoluciferase (Nluc), and the infection was allowed to proceed for 3–5 days. […] To account for daily growth of parasites over the course of the study, the observed RLUs in the vehicle-treated mice were used to simulate the growth of the parasite over the course of the experiment (Figure 4A). On each day of the study, the simulated parasite level was based on both the growth of the parasite and the predicted inhibition by BKI [[22–24]].
The efficacy of BKIs in an adult mouse model of C. parvum infection was tested as previously described. Briefly, all female IFN-γ KO mice (B6.129S7-Ifngtm1Ts/J, Jackson Laboratories), were infected by oral gavage (PO) with 10,000 Nluc expressing C. parvum oocysts in 100 μL DPBS for studies with 1534. For all other studies, mice were infected PO with 1,000 Nlucexpressing C. parvum oocysts. Vehicle control groups and BKI treated groups each contained at least three mice. […] The stool samples were checked for luminescence on the day of collection and RLU readings were standardized to fecal sample weights. […]

Data set [7] relates to Cryptosporidium. The arrangement: method as in PMID 12423984. As to conditions: cited from earlier work.

The structures appear in SMILES notation. Converted amounts (≈) assume the structure as drawn.

As a reminder, the AUC is concentration integrated over time. Broadly, the Cmax is the peak of the concentration-time curve. Regarding `CCOc1ccc2cc(-c3nn(CC4CCN(C)CC4)c4ncnc(N)c34)ccc2c1` [BKI 1294], in data set [1] (single oral dose 10 mg/kg), the AUC was found to be 430 µmol·min/L and the peak level (Cmax) was 800 nM. In data set [2], the “Plasma Protein Binding” value came out at 84%. For the same molecule, the EC50 in data set [3] came to 2.7 µM. Besides, in data set [4], the “Reduction in Neonatal Mouse C. parvum Infection” value (“Reduction” below) is 56%.
In the case of `CCOc1ccc2cc(-c3nn(CC4CCNCC4)c4ncnc(N)c34)ccc2n1` [BKI 1318], in data set [1] (single oral dose 10 mg/kg), the AUC stood at 2208 µmol·min/L and the highest level (Cmax) was 6500 nM. Moreover, the “Plasma Protein Binding” value in data set [2] is recorded as 55%. Also, the EC50 in data set [3] was found to be 3.2 µM. For the same molecule, the “Reduction” value in data set [4] amounted to 65%.
`CCOc1ccc2cc(-c3nn(CC4CCN(C)CC4)c4ncnc(N)c34)ccc2n1` [BKI 1369] showed a Cmax in data set [1] (single oral dose 10 mg/kg) of 300 nM. Further, the “Plasma Protein Binding” value in data set [2] is listed as 37%. For the same molecule, in data set [3], the EC50 is 2.3 µM. Besides, the “Reduction” value in data set [4] worked out at 70%.
As to `CC(C)Cn1nc(-c2ccc3cc(OC4CC4)ccc3c2)c2c(N)ncnc21` [BKI 1534], the “Solubility (second value)” value in data set [5] is listed as 2 µM (≈ 0.747 µg/mL). In data set [1] (single oral dose 10 mg/kg), this molecule showed an AUC of 58 µmol·min/L and a Cmax of 200 nM. Besides, the “in vivo efficacy (oocyst shedding, RLU)” value in data set [6] is listed as “lack of BKI efficacy”. The “Plasma Protein Binding” value in data set [2] is reported as 99%. For the same molecule, in data set [3], the EC50 was found to be 2.2 µM. In data set [4], the “Reduction” value turned out to be 61%.
As to `CC(C)Cn1nc(-c2ccc3nc(OC4CC4)ccc3c2)c2c(N)ncnc21` [BKI 1556], in data set [5], the “Solubility (second value)” value is reported as 7 µM (≈ 2.62 µg/mL). Also, in data set [1] (single oral dose 25 mg/kg), the area under the curve (AUC) was 2082 µmol·min/L and the concentration peaked (Cmax) at 7000 nM. The “Plasma Protein Binding” value in data set [2] came to 86%. Further, the EC50 in data set [3] amounted to 3.2 µM. Moreover, in data set [4], the “Reduction” value is listed as 61%.
On to `Nc1ncnc2c1c(-c1ccc3nc(OC4CC4)ccc3c1)nn2CC1CCOCC1` [BKI 1557], for which the “Solubility (second value)” value in data set [5] was 17 µM (≈ 7.08 µg/mL). In data set [1] (single oral dose 10 mg/kg), this molecule gave an AUC of 67 µmol·min/L and a Cmax of 900 nM. The “Plasma Protein Binding” value in data set [2] is reported as 84%. The EC50 in data set [3] turned out to be 5.5 µM. The “Reduction” value in data set [4] worked out at 33%.
On to `CC(C)(O)Cn1cc(-c2ccc3nc(OC4CC4)ccc3c2)c2c(N)ncnc21` [BKI 1649], for which, in data set [5], the “Solubility (second value)” value turned out to be 83 µM (≈ 32.3 µg/mL). In data set [1] (single oral dose 10 mg/kg), this molecule gave an AUC of 6416 µmol·min/L and a Cmax of 4900 nM. Further, in data set [2], the “Plasma Protein Binding” value amounted to 90%. The EC50 in data set [3] was 2.3 µM. Further, in data set [4], the “Reduction” value is 56%.
`CC(=O)Oc1ccccc1C(=O)Nc1ncc([N+](=O)[O-])s1` [nitazoxanide]: the efficacy entry in data set [7] (human immunodeficiency virus–infected individuals) is on record as “no efficacy”. Besides, the response rate in data set [7] (malnourished children with cryptosporidiosis) is reported as 30%.
